Among the test systems are NCI-H460 lung; MDA-MB-231 breast; NCI-H522 lung; CAKI-1 renal; SF-539 CNS; HOP-62 NSCLC; HOP-92 NSCLC; RXF 393 renal; SR leukemia; SW-620 colon.
Experiment in all cases: growth of human tumour cells (NCI), 48 h

Structures are written as SMILES. “And” between values parts separate entries of the source, which are not always exact repeats. Equal values may be shown once.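 Interpolation was linear, between the two tested concentrations surrounding the appropriate level; five concentrations were tested over 48 hours in 96-well plates. At the GI50, growth is halved. Definition used: TGI = concentration required for complete inhibition of growth.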

Consider 8 compounds from PubChem BioAssay (NCI).

For `CCCCCCCCCCCCCCCCOP(=O)([O-])OCC[N+](C)(C)C`, the GI50 with NCI-H460 lung is 518 nM; with MDA-MB-231 breast, 1190 nM; with NCI-H522 lung it was 885 nM; in the experiment with CAKI-1 renal, 931 nM; with SF-539 CNS, 2340 nM; in the experiment on HOP-62 NSCLC, 1380 nM. In addition, the GI50 is 1140 nM in the experiment on HOP-92 NSCLC, 427 nM with RXF 393 renal, 546 nM with SR leukemia and 2080 nM with SW-620 colon. For the same compound, the TGI in the experiment on CAKI-1 renal was 2990 nM and 27700 nM; in the experiment on SF-539 CNS, 5860 nM and 52900 nM; in the experiment with HOP-92 NSCLC it was 3120 nM and 15300 nM; with SR leukemia it was 3460 nM and 28500 nM; with SW-620 colon, 13900 nM and 57000 nM.
For `CCC1(OC(=O)CN)C(=O)OCc2c1cc1n(c2=O)Cc2cc3ccccc3nc2-1` (stereo unspecified), the GI50 in the experiment with NCI-H460 lung was 3.29 nM; in the experiment on MDA-MB-231 breast it was 652 nM; with NCI-H522 lung, 36.2 nM; in the experiment with CAKI-1 renal it was 7.39 nM; in the experiment on SF-539 CNS, 37.8 nM; with HOP-62 NSCLC, 94.6 nM. Also, the GI50 is 97.1 nM in the experiment on HOP-92 NSCLC, 148 nM with RXF 393 renal and 44.8 nM in the experiment with SW-620 colon. In addition, the TGI in the experiment on MDA-MB-231 breast is 6040 nM; in the experiment on NCI-H522 lung, 590 nM and 624 nM; in the experiment on SF-539 CNS, 191 nM and 25.3 nM; with HOP-62 NSCLC, 285 nM; in the experiment with RXF 393 renal, 880 nM and 307 nM; in the experiment on SR leukemia, < 34.7 nM. The TGI in the experiment with SW-620 colon is > 100000 nM.
As to `CC([C@H]1CC=C2C3CCC4=C[C@@H](N(C)C)CC[C@]4(C)C3CC[C@@]21C)N(C)C` (stereo partly specified), the GI50 was 2070 nM with NCI-H460 lung; 2330 nM with MDA-MB-231 breast; 7120 nM in the experiment with NCI-H522 lung; 2490 nM in the experiment on CAKI-1 renal; 1400 nM with SF-539 CNS; 1800 nM in the experiment with HOP-62 NSCLC. In addition, the GI50 was 3660 nM in the experiment with HOP-92 NSCLC, 4280 nM in the experiment on RXF 393 renal, 876 nM with SR leukemia and 2490 nM in the experiment with SW-620 colon. The TGI worked out at 5480 nM in the experiment with NCI-H460 lung; 7900 nM with MDA-MB-231 breast; 25000 nM in the experiment on NCI-H522 lung; 10300 nM in the experiment on CAKI-1 renal; 2840 nM in the experiment on SF-539 CNS; 3870 nM in the experiment on HOP-62 NSCLC. For the same compound, the TGI was 10300 nM with HOP-92 NSCLC, 17300 nM with RXF 393 renal, 4190 nM with SR leukemia and 8240 nM in the experiment on SW-620 colon.
Take `CC1(C)OC(=O)C(C#N)=C1C[n+]1ccccc1`: the TGI in the experiment on NCI-H460 lung, in the experiment on MDA-MB-231 breast, with NCI-H522 lung, in the experiment with CAKI-1 renal, in the experiment with SF-539 CNS and in the experiment with HOP-62 NSCLC was > 10000 nM throughout. Moreover, the TGI in the experiment with HOP-92 NSCLC, in the experiment with RXF 393 renal, in the experiment with SR leukemia and with SW-620 colon was > 10000 nM throughout.
Consider `O=C(c1ccccc1)c1c(C(F)(F)F)n([O-])c2cc(C(F)(F)F)ccc2[n+]1=O`, for which the GI50 with NCI-H460 lung was 1680 nM; with MDA-MB-231 breast, 1600 nM; with NCI-H522 lung it was 1230 nM; in the experiment on CAKI-1 renal it was 491 nM; with SF-539 CNS, 1740 nM; in the experiment on HOP-62 NSCLC it was 1830 nM. Further, the GI50 in the experiment with HOP-92 NSCLC is 1510 nM; with RXF 393 renal it was 1340 nM; in the experiment with SR leukemia it was 1170 nM; in the experiment with SW-620 colon, 619 nM. Further, the TGI was found to be 3420 nM in the experiment with NCI-H460 lung; 3110 nM in the experiment with MDA-MB-231 breast; 2720 nM in the experiment with NCI-H522 lung; 956 nM with CAKI-1 renal; 3170 nM in the experiment with SF-539 CNS; 3500 nM in the experiment on HOP-62 NSCLC. For the same compound, the TGI in the experiment with HOP-92 NSCLC was 2950 nM; in the experiment on RXF 393 renal, 2920 nM; in the experiment on SR leukemia it was 3530 nM; in the experiment on SW-620 colon, 1690 nM.
Take `COc1ccc(/C=C2\SC(=Nc3ccccc3)NC2=O)cc1`: the GI50 was 3360 nM with NCI-H460 lung; 4580 nM with MDA-MB-231 breast; 4540 nM in the experiment on NCI-H522 lung; 3980 nM in the experiment on CAKI-1 renal; 3600 nM with SF-539 CNS; 7060 nM with HOP-62 NSCLC. For the same compound, the GI50 in the experiment with HOP-92 NSCLC is 7640 nM; in the experiment with RXF 393 renal, 4680 nM; in the experiment with SR leukemia it was 2500 nM; in the experiment with SW-620 colon, 3380 nM. The TGI in the experiment with NCI-H460 lung is 13400 nM; in the experiment with MDA-MB-231 breast, 38700 nM; with NCI-H522 lung, 24900 nM; in the experiment with CAKI-1 renal, > 100000 nM; in the experiment on SF-539 CNS it was 15100 nM; in the experiment on HOP-62 NSCLC it was 26100 nM. For the same compound, the TGI with HOP-92 NSCLC worked out at 53500 nM; in the experiment on RXF 393 renal, 26800 nM; in the experiment on SR leukemia, 30700 nM; in the experiment on SW-620 colon it was 24400 nM.
Regarding `COc1ccc(NC(=O)c2sc3nc(C)c(C(=O)/C=C/c4cccc(OC)c4)cc3c2N)cc1`, the GI50 in the experiment on NCI-H460 lung was 1070 nM; in the experiment on MDA-MB-231 breast, 1660 nM; in the experiment on NCI-H522 lung it was 1380 nM; in the experiment on CAKI-1 renal, 1960 nM; with SF-539 CNS it was 1310 nM; in the experiment with HOP-62 NSCLC, 1290 nM. The GI50 with HOP-92 NSCLC was 1510 nM; in the experiment on RXF 393 renal it was 916 nM; in the experiment on SR leukemia it was 1240 nM; with SW-620 colon, 1260 nM. Further, the TGI was 2450 nM in the experiment with NCI-H460 lung; > 50000 nM in the experiment on MDA-MB-231 breast; 5410 nM with NCI-H522 lung; 6990 nM in the experiment with CAKI-1 renal; 3490 nM with SF-539 CNS; 3470 nM in the experiment with HOP-62 NSCLC. The TGI with HOP-92 NSCLC stood at 9990 nM; in the experiment on RXF 393 renal, 1840 nM; in the experiment on SR leukemia, 5920 nM; with SW-620 colon, 3790 nM.
Turning to `Cn1c(-c2ccccc2)c(/C=C/C2=[N+](C)c3ccccc3C2(C)C)c2ccccc21`, the GI50 with NCI-H460 lung was 580 nM; with MDA-MB-231 breast, 2180 nM; with NCI-H522 lung, 863 nM; with CAKI-1 renal it was 1810 nM; in the experiment with SF-539 CNS, 2590 nM; in the experiment with HOP-62 NSCLC it was 2150 nM. The GI50 in the experiment on HOP-92 NSCLC was 616 nM; with RXF 393 renal, 2550 nM; in the experiment on SR leukemia, 433 nM; in the experiment with SW-620 colon, 1520 nM. Besides, the TGI in the experiment on NCI-H460 lung turned out to be 8240 nM; with MDA-MB-231 breast, 22800 nM; with NCI-H522 lung, 3780 nM; with CAKI-1 renal, 5080 nM; with SF-539 CNS it was 14200 nM; in the experiment on HOP-62 NSCLC, 12600 nM. In addition, the TGI in the experiment with HOP-92 NSCLC worked out at 4640 nM; with RXF 393 renal, 12600 nM; in the experiment on SR leukemia, 5770 nM; in the experiment on SW-620 colon it was 12500 nM.
